These results are taken from the NIST ThermoML archive (doi:10.1021/acs.jced.5b01053).

Data set [1] is described as follows: Molar enthalpy of transition or fusion. The note with it: Crystal; DSC.
Data set [2] is described as follows: Solid-liquid equilibrium temperature. The note with it: 101 kPa; Crystal; DTA.
For data set [3] the following is noted: 298.15 K; 101.33 kPa; Crystal; Vibrating tube method.

Numbers after ± are expanded uncertainties.

Take `CS(=O)(=O)c1ccc(C=O)cc1` [4-(methylsulfonyl)benzaldehyde]: the “Molar enthalpy of transition or fusion” value in data set [1] was determined as 6.26 ± 0.229 kcal/mol. Also, the Solid-liquid equilibrium temperature in data set [2] is 431.49 ± 1 K. Further, in data set [3], the mass density (as a rule, the mass of a sample divided by its volume) is recorded as 1289 ± 3 kg/m3.
